Several values for one entry are separate records, joined by “and”; a condition that tells them apart may be missing. Equal values may be shown once. Read-outs that look alike come from different tables or passages of the source.
How the values were obtained:
hPPARgamma = biological target: T1, hPPARgamma (Homo sapiens, UniProt P37231); assay: PPAR activation: Gal4-hPPARγ chimera luciferase transactivation in COS-7 cells, Method 2; format: cell-based; conditions: COS-7, 24 h; for EC50: 1% Ultroser
T1 construct: expressed in transfected cells; host or cells: COS-7 (monkey kidney fibroblasts)
T1 sequence (P37231 238-503 limits assumed): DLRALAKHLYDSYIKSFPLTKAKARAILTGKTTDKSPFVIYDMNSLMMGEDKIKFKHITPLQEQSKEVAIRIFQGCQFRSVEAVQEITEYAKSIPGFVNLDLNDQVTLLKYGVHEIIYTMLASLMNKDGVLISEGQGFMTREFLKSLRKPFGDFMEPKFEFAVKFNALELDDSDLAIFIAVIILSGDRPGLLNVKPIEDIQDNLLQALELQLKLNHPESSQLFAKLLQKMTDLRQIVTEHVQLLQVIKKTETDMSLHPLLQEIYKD
Description: (§1) The activation of the PPARs was evaluated in vitro on a line of monkey kidney fibroblasts (COS-7) by measuring the transcriptional activity of chimeras constituted of the DNA binding domain of the Gal4 transcription factor of yeast and the ligand binding domain of the various PPARs.
Only the application of the transfection stage is slightly different. The details are presented below.
(§2) The adherent COS-7 cells are transfected with 40 μg of DNA per 225 cm^2 dish, with a pGal4-PPAR/Gal4(RE)_TkpGL3 ratio of 1/10, in the presence of 10% fetal calf serum. The cells are then detached and seeded in the absence of serum in 384-well plates (2×10^4 cells/well) and incubated for 4 hours at 37° C. The compounds are then diluted in a 96-well plate and transferred to the 384-well plate. Activation with the test compounds is carried out for an additional 24 h at 37° C. in the presence of 1% of Ultroser™ lipid-free synthetic serum (Biosepra). These last 2 stages are automated using a Genesis Freedom 200™ station (Tecan). At the end of the experiment, the cells are lysed and the luciferase activity is determined using the Steady-Lite™ HTS (Perkin Elmer) following the supplier's recommendations.

hPPARdelta = biological target: T2, hPPARdelta (Homo sapiens, UniProt Q03181); assay: PPAR activation: Gal4-hPPARδ chimera luciferase transactivation in COS-7 cells, Method 2; format: cell-based; conditions: COS-7, 24 h; for EC50: 1% Ultroser; for Emax: maximum percentage response relative to the reference GW501516, read-out: hPPARdelta % max
T2 construct: expressed in transfected cells; host or cells: COS-7 (monkey kidney fibroblasts)
T2 sequence (Q03181 211-439 limits assumed): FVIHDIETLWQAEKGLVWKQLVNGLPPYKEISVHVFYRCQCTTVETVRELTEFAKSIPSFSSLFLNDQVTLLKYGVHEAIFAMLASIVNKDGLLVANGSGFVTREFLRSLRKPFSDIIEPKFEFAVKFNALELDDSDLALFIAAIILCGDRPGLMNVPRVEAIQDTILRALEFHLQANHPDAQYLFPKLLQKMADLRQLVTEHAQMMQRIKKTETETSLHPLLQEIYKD
Description: as §1, with “PPARs. The compounds were tested at doses between 10^−5 and […] on the chimeras Gal4-PPARα, γ or δ, and the corresponding EC50 values were determined.” for “PPARs.”
(§3) The principle, the cells and the plasmids used for example 5 were also employed in this example. Only the application of the transfection stage is slightly different. The details are presented below.
as §2

hPPARalpha = biological target: T3, hPPARalpha (Homo sapiens, UniProt Q07869); assay: PPAR activation: Gal4-hPPARα chimera luciferase transactivation in COS-7 cells, Method 2; format: cell-based; conditions: COS-7, 24 h; for EC50: 1% Ultroser; for Emax: maximum percentage response relative to the reference phenofibric acid, read-out: hPPARalpha % max
T3 construct: expressed in transfected cells; host or cells: COS-7 (monkey kidney fibroblasts)
T3 sequence (Q07869 239-466 limits assumed): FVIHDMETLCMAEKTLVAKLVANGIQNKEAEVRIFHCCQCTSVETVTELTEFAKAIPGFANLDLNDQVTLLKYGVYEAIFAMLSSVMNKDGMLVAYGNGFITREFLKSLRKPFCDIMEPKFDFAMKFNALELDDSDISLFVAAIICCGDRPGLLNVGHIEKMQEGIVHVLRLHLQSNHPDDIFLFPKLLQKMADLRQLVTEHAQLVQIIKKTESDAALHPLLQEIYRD
Description: as §1, with “PPARs. The compounds were tested at doses between 10^−5 and […] on the chimeras Gal4-PPARα, γ or δ, and the corresponding EC50 values were determined.” for “PPARs.”
as §3, §2

[1] = maximum percentage response relative to the reference rosiglitazone, Method 2, read-out: hPPARgamma % max
[2] = Method 2, read-out: hPPARgamma EC50

Compound | melting point [°C] | Emax (hPPARgamma; [1]) [%] | EC50 (hPPARgamma; [2]) [nM] | EC50 (hPPARdelta) | Emax (hPPARdelta) [%] | EC50 (hPPARalpha) | Emax (hPPARalpha) [%] | Emax (hPPARgamma; read-out: hPPARgamma % max, maximum percentage response relative to the reference rosiglitazone, Method 2) [%] | EC50 (hPPARgamma; hPPARgamma EC50, Method 2)
CON=C(CCc1ccc(OC(C)(C)C(=O)O)c(Cl)c1Cl)c1ccc(-c2ccc(C(F)(F)F)cc2)s1 (mixture of isomers) [Compound 50, 2-(2,3-dichloro-4-(3-(methoxyimino)-3-(5-(4-(trifluoromethyl)-phenyl)thien-2-yl)propyl)phenoxy)-2-methylpropanoic acid] | 68 to 69 | 32 | 270 | 50 nM | 78 | 260 nM | 38 | – | –
CC(C)OC(CCc1ccc(OC(C)(C)C(=O)O)c(Cl)c1Cl)c1ccc(-c2ccc(C(F)(F)F)cc2)s1 (stereo not drawn) [Compound 55, 2-(2,3-dichloro-4-(3-isopropoxy-3-(5-(4-(trifluoromethyl)-phenyl)thien-2-yl)propyl)phenoxy)-2-methylpropanoic acid] | 88 to 90 | 2 | – | 4710 nM | 34 | 2800 nM | 25 | – | –
CC(C)(Oc1ccc(CCC(=O)c2ccc(-c3ccc(C(F)(F)F)cc3)o2)c(Cl)c1Cl)C(=O)O [Compound 38, 2-(2,3-dichloro-4-(3-oxo-3-(5-(4-(trifluoromethyl)phenyl)fur-2-yl)-propyl)phenoxy)-2-methylpropanoic acid] | 85 | – | – | 14 nM and 9 nM | 89 | 200 nM and 320 nM | 44 | 37 | 1840 nM and 810 nM
O=C(O)COc1ccc(CCC(=O)c2ccc(-c3ccc(C(F)(F)F)cc3)s2)cc1F [Compound 25, 2-(2-fluoro-4-(3-oxo-3-(5-(4-(trifluoromethyl)phenyl)thien-2-yl)-propyl)phenoxy)acetic acid] | 170 to 171 | 27 | 36500 | 7450 nM | 75 | 1680 nM | 55 | – | –
